Measured values: patent publication US20260248717A1, “METHOD OF TREATING LOWER TRACT UROTHELIAL CANCER” (TARIS Biomedical LLC, priority 2016, published 2026)

What was measured:
[1] = Comparison of urine gemcitabine and dFdU between minipig study and human phase IB study; assay type: in vivo; conditions: for urine concentrations: mini pig study versus human phase IB study (FIG. 10)
[2] = in vivo
Description: The ongoing Phase 1b study, TAR-200-101, is designed to evaluate the safety and tolerability of up to 2 dose cycles of gemcitabine administered intravesicularly at a dose of 225 mg for 7 days separated by a rest period of 14 days using the GemRIS system, over a 28-day period in patients with confirmed muscle-invasive transitional cell carcinoma of the bladder (>/=clinical and pathologic stage pT2a), who are scheduled to undergo radical cystectomy (RC) with concomitant lymphadenectomy.
Gemcitabine Releasing Intravesical System (GemRIS) is placed into the bladder through an inserter on Study Day 0 and is removed on Study Day 7. GemRIS releases gemcitabine gradually during the 7 day indwelling time. A second GemRIS is placed in the bladder on Study Day 21 and is removed on Study Day 28 which is the day of the TURBT. GemRIS is a passive, nonresorbable gemcitabine-releasing intravesicular (intravesical) system whose primary mode of action is the controlled release of gemcitabine into the bladder over a 7 day period.
The primary outcome measures are the number of participants with treatment emergent adverse events (TEAEs) coded with MedDRA and graded for severity with CTCAE v4.0. The secondary outcome measures are the number and percentage of participants who are tolerant of GemRIS indwelling on days 1-7 and 21-28. Plasma and urine levels of dFdC and dFdU are also measured. […] Cmax, plasma dFdU Analysis of Cmax (maximum concentration achieved over time) of diflourodeoxyuridine (dFdU) in plasma. [Time Frame: From Day 0 up to Day 28] • 6. Tmax, plasma dFdU. Analysis of Tmax (Day at which maximum concentration was achieved) of diflourodeoxyuridine (dFdU) in plasma. [Time Frame: From Day 0 up to Day 28] • 7. Cavg, plasma dFdU. Analysis of Descriptive statistics (e.g. sample size, mean and median, quartiles, minimum and maximum and box plots) of the concentration of diflourodeoxyuridine (dFdU) in plasma. [Time Frame: From Day 0 up to Day 28] • 8. Cmax, plasma dFdC. Analysis of Cmax (maximum concentration achieved over time) of gemcitabine (deoxydifluorocytidine hydrochloride dFdC) in plasma. [Time Frame: From Day 0 up to Day 28] • 9. Tmax, plasma dFdC. Analysis of Tmax (Day at which maximum concentration was achieved) of gemcitabine (deoxydifluorocytidine hydrochloride—dFdC) in plasma [Time Frame: From Day 0 up to Day 28] • 10. Cavg, plasma dFdC. Analysis of Descriptive statistics (e.g. sample size, mean and median, quartiles, minimum and maximum and box plots) of the concentration of gemcitabine (deoxydifluorocytidine hydrochloride—dFdC) in plasma [Time Frame: From Day 0 up to Day 28]. • 11. Cmax, urine dFdU (Arm 1 only). Analysis of Cmax (maximum concentration achieved over time) of diflourodeoxyuridine (dFdU) in urine. [Time Frame: From Day 0 up to Day 28] • 12. Tmax, urine dFdU (Arm 1 only). Analysis of Cmax (maximum concentration achieved over time) of diflourodeoxyuridine (dFdU) in urine. [Time Frame: From Day 0 up to Day 28] • 13. Tmax, urine dFdU (Arm 1 only). Analysis of Cmax (maximum concentration achieved over time) of diflourodeoxyuridine (dFdU) in urine. [Time Frame: From Day 0 up to Day 28] • 14. Cavg, urine dFdU (Arm 1 only). Analysis of Descriptive statistics (e.g. sample size, mean and median, quartiles, minimum and maximum and box plots) of the concentration of diflourodeoxyuridine (dFdU) in urine. [Time Frame: From Day 0 up to Day 28] • 15. Cmax, urine dFdC (Arm 1 only).

[3] = Pilot pharmacokinetic study, 14C-gemcitabine perfused via intra-urinary bladder cannula; assay type: in vivo, male Sprague-Dawley rats; conditions: 3.85 mg/mL, 300 μL/hr
Description: A pilot study performed was using male Sprague-Dawley rats to determine the pharmacokinetics and pharmacodynamics properties of administering gemcitabine locally and continuously to the bladder. Rats were fitted with intra-urinary bladder cannula (IUBC) and radiolabeled ^14C-gemcitabine was perfused for 6 or 24 hours at a rate of 300 μL/hr at a concentration of 3.85 mg/mL of gemcitabine. The concentration of gemcitabine in various tissue layers were measured.

[4] = rat, in vivo
Description: An orthotopic bladder cancer model was developed in rats to allow evaluation of the efficacy of continuous administration of gemcitabine to the bladder on treatment of a human bladder cancer cell line. Athymic nude rats were cannulated on day 0. The rats were injected with fluorescently labeled T24 human bladder cancer cells on day 3. On day 5 of the study, tumors were observable. Gemcitabine perfusion started on day 6 and continued until day 11. Three concentrations of gemcitabine were tested: 90 μg/ml, 180 μg/ml, and 350 μg/ml.

[5] = system: T24 human bladder cancer cells; assay: Orthotopic bladder cancer model in rats, continuous gemcitabine perfusion of the bladder; assay type: in vivo, Athymic nude rats
Text: After day 11, the bladders were removed and subject to histological analysis.

[6] = system: NBT-II rat bladder tumor cells; assay: Syngeneic rat bladder tumor model, immune effects of continuous local gemcitabine; assay type: in vivo, Wistar rats
Description: A syngeneic rat model was developed to assess treatment efficacy and immune effects of continuous local administration to the bladder. Wistar rats were cannulated on day 0 and injected with NBT-II rat bladder tumor cells on day 3. Tumors were allowed to grow for 5 days prior to the start of perfusion on day 8. On days 8-13 of the study gemcitabine was perfused at a concentration of 90 μg/ml or 180 μg/ml. The rats were euthanized on day 14. Samples from the tumor, spleen, blood and plasma were collected for histopathology and immunohistochemistry, flow cytometry, and cytokine profiling.
The level of activated CD8+ and CD4+ T cells were also measured in the tumor microenvironment compared to the level of CD+4 and CD8+ regulatory cells.
Plasma TGFβ and IL-10 levels were also measured following delivery of gemcitabine. […] Inhibition of TGFβ is known to impair Treg activation.

[7] = Minipig model, local continuous gemcitabine from an intravesical device for one week; assay type: in vivo, minipigs; conditions: device removed at day 7; tissue levels estimated from gemcitabine and active metabolite in urine (FIG. 2)
Description: A minipig model was developed to investigate the effect of administering gemcitabine to the bladder locally and continuously using an intravesicular (intravesical) device. For this study, gemcitabine was continuously administered to minipigs for one week using an intravesicular (intravesical) device. The intravesicular (intravesical) device was removed at day 7. The concentration of gemcitabine and active metabolite was measured in the urine of the minipigs following removal of the device. Based upon the level of gemcitabine and active metabolite in the urine, the therapeutic gemcitabine levels in the bladder tissue were estimated.

SMILES	urine concentrations [1]	plasma concentrations of dFdU (quantifiable samples) [2]	plasma samples with low but quantifiable dFdU [2]	urine levels [2]	distribution of radiolabel among bladder tissue layers ([3]; perfused for 6 or 24 hours)	penetration into bladder tissue layers ([3]; perfused for 6 or 24 hours (FIG. 3))	hematuria [4]	urine and blood parameters [4]	tumor volume compared to untreated control (tumor size as net average intensity, FIG. 1) ([5]; 90 μg/ml gemcitabine, continuous perfusion day 6 to day 11, five day study period)	anti-tumor effect with increasing concentration ([5]; 90 μg/ml, 180 μg/ml and 350 μg/ml gemcitabine perfusion)	plasma TGFβ level compared to control animals ([6]; 180 μg/mL gemcitabine (FIG. 6))	plasma IL-10 level ([6]; 180 μg/mL gemcitabine, versus untreated control rats (FIG. 7))	level of activated CD4+ and CD8+ cells in the spleen ([6]; gemcitabine perfusion days 8-13, versus untreated control rats (FIG. 5))	ratio of regulatory T cells to activated CD4+ and CD8+ T cells in the tumor microenvironment ([6]; perfusion 90 or 180 μg/mL, days 8-13 (FIG. 4))	levels of gemcitabine excreted in the urine ([1]; minipig study versus human phase IB trial (FIG. 9))	plasma concentrations of gemcitabine ([2]; human)	therapeutically relevant gemcitabine levels in bladder tissue after device removal [7]
O=c1ccn(C2OC(CO)C(O)C2(F)F)c(=O)[nH]1 (stereo not shown) [dFdU, diflourodeoxyuridine]	comparable	104 to 284 ng/mL	10 of 55	measurable	–	–	–	–	–	–	–	–	–	–	–	–	–
Nc1ccn([C@@H]2O[C@H](CO)[C@@H](O)C2(F)F)c(=O)n1 [gemcitabine, 2′,2′-difluorodeoxycytidine]	comparable	–	–	measurable	most concentrated in the adventitia and epithelium, followed by muscle and lamina propria	able to penetrate into deeper bladder tissues	observed in all perfusion animals	No major significant differences	significant reduction in tumor volume	increased with administration of increasing concentrations	decreased	increased	increased	decreased	comparable	< 100 ng/mL	persisted well after the device was removed
